Results reported in US12492403B2, “Aptamers and the use thereof in the treatment of cancer” (FUNDACIÓN PARA LA INVESTIGACIÓN BIOMÉDICA DEL HOSPITAL …, priority 2018, dated 2025).

Columns and labels:
[1] = tested on: caspase 3; assay: Caspase 3 activity by western blot of PARP and α-spectrin fragments; type: cell-based, human; settings: MCF7, MDA-MB-231, and MDA-MB-468 cells, 24 hours post-transfection
Text: FIGS. 11A & 11B. Effect of apMNKQ2 on caspase 3 activity by means of PARP and α-spectrin substrates in breast cell lines. Immunodetection with specific antibodies by means of 12% SDS-PAGE of “cleaved” PARP (FIG. 11A) and α-spectrin (FIG. 11B) for detecting the proteolytic activity of caspase 3 after the transfection of lines MCF7, MDA-MB-231, and MDA-MB-468 with apMNKQ2 and the control aptamer AT. The activity of this protease gives rise to characteristic proteolysis patterns with specific fragments of 89 kDa for PARP and 150 and 120 kDa for α-spectrin.
Caspase 3 activity was assessed by means of western blot with two endogenous substrates of this protein: • the enzyme poly ADP-ribose (PARP), fractionated in late apoptotic stages, using a specific antibody that only recognizes the PARP fragment processed by caspase 3. • the protein α-spectrin, with an antibody capable of recognizing the complete form and the fragments obtained after being broken down by caspase 3. Colony Formation Assays
Similarly, to verify that apMNKQ2 is capable of increasing apoptosis in the cell lines, the activity of caspase 3, a protease activated in apoptosis, was assessed. The western blot study was performed on two endogenous substrates of caspase 3: the enzyme poly ADP-ribose (PARP), fractionated in late apoptotic stages, and the protein α-spectrin. […]

[2] = tested on: MDA-MB-468 cells; assay: MTT activity assay, aptamers transfected with Lipofectamine 2000; type: cell-based, human; settings: MDA-MB-468, MTT activity at 48 hours, 0 to 500 nM
Experimental: FIGS. 8A-8C. Effect of aptamer apMNKQ2 on MTT activity of breast cell lines. MCF7, MDA-MB-231, and MDA-MB-468 cells were seeded in 96-well plates at a density of 10^4 cells/well. […] The graphs represent the means±SEM of 3 independent experiments (*p<0.05, **p<0.01, and ***p<0.001 with respect to the control AT).
The Lipofectamine™ 2000 system (Invitrogen, USA) was used to treat cells with the different aptamers. To prepare the DNA-lipofectamine complex, lipofectamine and DNA were separately diluted in opti-MEM (Gibco, USA) and left to incubate at room temperature for 5 minutes. They were then mixed to form lipofectamine-DNA complexes and incubated for 20 minutes at room temperature. Finally, the mixture was added to the cells that had been washed twice with antibiotic-free medium to prevent the interference thereof with lipofectamine. The cells were incubated at 37° C. for 5 hours, after which the reagent was removed and a complete medium was added.
MTT activity. The cells were seeded in 96-well plates and after having been transfected, the culture medium was removed and 100 μL/well of MTT at 1 mg/ml in culture medium were added. […] After 48 hours, the reduction of MTT was determined by means of spectrophotometry in Infinite F200 (TECAN, Switzerland) at 540 nm.
The results were expressed as the percentage of viability with respect to the control or in absorbance units.

[3] = Stability in human plasma; type: in vitro ADME; settings: 37° C., 72 hours
Experimental: FIGS. 7A and 7B. Stability of apMNKQ2. Chip Experion™ DNA 1K Analysis Kit (BioRad, USA) for analyzing the stability of apMNKQ2 with 1 unit, 0.5 units, and 0.25 units of DNase I (FIG. 7A). In FIG. 7B, the degradation of aptamer apMNKQ2 in human plasma at 0, 6, 16, 24, 48, and 72 hours is depicted.
The previously structured aptamer apMNKQ2 (1 μg) was incubated in the presence of 1 unit, 0.5 units, and 0.25 units of the enzyme DNase I (ThermoFisher Scientific, USA) in the buffer supplied by the company (10 mM Tris HCl, pH 7.5, 2.5 mM MgCl2, 0.1 mM CaCl2)) for 5 minutes at 37° C., and the reaction was then stopped by adding 1 μL of 50 mM EDTA (ThermoFisher Scientific, USA) and heating at 65° C. for 10 minutes. […] The samples were analyzed using an Experion™ DNA 1K Analysis Kit chip (BioRad, USA). The intensity of each of the bands corresponding to the aptamers treated or not treated with DNase I or plasmas was assessed and the percentage of stability was calculated by dividing the value obtained for each of the treated aptamers by the value obtained for the untreated aptamer.
Resistance of the aptamer to degradation by DNases was analyzed by incubating […] of structured apMNKQ2 in the presence of three concentrations of DNase I (Thermo Scientific, USA), as described in the Materials and Methods section. […]

## 5′TGGGGTGGGCGGGCGGGGGTGGGGGTGGT-3′ (DNA, backbone and methylation of C not given here; further chemistry not fully specified) [apMNKQ2]
[1]
  caspase 3 activity (proteolysis fragments of PARP and α-spectrin): apoptotic effect
[2]
  GI50: 19 nM
[3]
  degradation in human plasma: no degradation
